System: A498
Assay: Cell panel screen (CellTiter-Glo)
Format: cell-based, human
Settings: A498 (listed under Lung), 20 micromolar, 72 hrs
Method: (§1) All cells were obtained from the cell bank of the American Type Culture Collection (ATCC) and cultured in the supplier's recommended media supplemented with 10% FBS. The cell panel screen was measured using the CellTiter-Glo assay (Promega, Madison, WI) following a standard protocol. Briefly, cancer cells were seeded in 96-well plates and cultured overnight at 37°C with or without 5% CO2 in an incubator. Each compound was dissolved with limited DMSO and diluted to a certain concentration with culture medium and then added to the corresponding well of the cell plate. The final concentration of compound was 20 μM. The control cells (without treatment) received the same amount of DMSO and were incubated under the same conditions. After 72 h cultivation, 100 μL of the CellTiter-Glo reagent was added directly to each well for 10-minute incubation. The plate was then read on a FlexStation 3 microplate luminometer (Molecular Devices, USA) to monitor the luminescence signal generated by the luciferase-catalyzed reaction of luciferin and ATP. The percent of growth inhibition was calculated using the following formula: (untreated cells − treated cells)/(untreated cells − background without cells) ∗ 100.

Compound	Percent Inhibition [%]
COc1c(CC=C(C)C)cc2c(=O)c3c(O)cc(O)cc3oc2c1O [gl-16]	34
O=c1c2cc(O)ccc2oc2cccc(O)c12 [gl-20]	38

System: A704
Assay: Cell panel screen (CellTiter-Glo)
Format: cell-based, human
Settings: A704 (Kidney), 20 micromolar, 72 hrs
Method: as §1

Compound	Percent Inhibition [%]
COc1c(CC=C(C)C)cc2c(=O)c3c(O)cc(O)cc3oc2c1O [gl-16]	9
O=c1c2cc(O)ccc2oc2cccc(O)c12 [gl-20]	13

System: BT-474
Assay: Cell panel screen (CellTiter-Glo)
Format: cell-based, human
Settings: BT-474 (Breast), 20 micromolar, 72 hrs
Method: as §1

Compound	Percent Inhibition [%]
COc1c(CC=C(C)C)cc2c(=O)c3c(O)cc(O)cc3oc2c1O [gl-16]	16
O=c1c2cc(O)ccc2oc2cccc(O)c12 [gl-20]	50

System: BT-549
Assay: Cell panel screen (CellTiter-Glo)
Format: cell-based, human
Settings: BT-549 (Breast), 20 micromolar, 72 hrs
Method: as §1

Compound	Percent Inhibition [%]
COc1c(CC=C(C)C)cc2c(=O)c3c(O)cc(O)cc3oc2c1O [gl-16]	27
O=c1c2cc(O)ccc2oc2cccc(O)c12 [gl-20]	46

System: Bel-7402
Assay: Cell panel screen (CellTiter-Glo)
Format: cell-based, human
Settings: Bel-7402 (Liver), 20 micromolar, 72 hrs
Method: as §1

Compound	Percent Inhibition [%]
COc1c(CC=C(C)C)cc2c(=O)c3c(O)cc(O)cc3oc2c1O [gl-16]	17
O=c1c2cc(O)ccc2oc2cccc(O)c12 [gl-20]	-3

System: C3A
Assay: Cell panel screen (CellTiter-Glo)
Format: cell-based, human
Settings: C3A (Liver), 20 micromolar, 72 hrs
Method: as §1

Compound	Percent Inhibition [%]
COc1c(CC=C(C)C)cc2c(=O)c3c(O)cc(O)cc3oc2c1O [gl-16]	45
O=c1c2cc(O)ccc2oc2cccc(O)c12 [gl-20]	58

System: C8166
Assay: Cell panel screen (CellTiter-Glo)
Format: cell-based, human
Settings: C8166 (Leukemia), 20 micromolar, 72 hrs
Method: as §1

Compound	Percent Inhibition [%]
COc1c(CC=C(C)C)cc2c(=O)c3c(O)cc(O)cc3oc2c1O [gl-16]	77
O=c1c2cc(O)ccc2oc2cccc(O)c12 [gl-20]	76

System: CCF-STTG1
Assay: Cell panel screen (CellTiter-Glo)
Format: cell-based, human
Settings: CCF-STTG1 (Brain), 20 micromolar, 72 hrs
Method: as §1

Compound	Percent Inhibition [%]
COc1c(CC=C(C)C)cc2c(=O)c3c(O)cc(O)cc3oc2c1O [gl-16]	25
O=c1c2cc(O)ccc2oc2cccc(O)c12 [gl-20]	49

System: CW-2
Assay: Cell panel screen (CellTiter-Glo)
Format: cell-based, human
Settings: CW-2 (Colon), 20 micromolar, 72 hrs
Method: as §1

Compound	Percent Inhibition [%]
COc1c(CC=C(C)C)cc2c(=O)c3c(O)cc(O)cc3oc2c1O [gl-16]	55
O=c1c2cc(O)ccc2oc2cccc(O)c12 [gl-20]	47

System: ChaGo-K-1
Assay: Cell panel screen (CellTiter-Glo)
Format: cell-based, human
Settings: ChaGo-K-1 (Lung), 20 micromolar, 72 hrs
Method: as §1

Compound	Percent Inhibition [%]
COc1c(CC=C(C)C)cc2c(=O)c3c(O)cc(O)cc3oc2c1O [gl-16]	57
O=c1c2cc(O)ccc2oc2cccc(O)c12 [gl-20]	57

System: Colo 205
Assay: Cell panel screen (CellTiter-Glo)
Format: cell-based, human
Settings: Colo 205, 20 micromolar, 72 hrs
Method: as §1

Compound	Percent Inhibition [%]
COc1c(CC=C(C)C)cc2c(=O)c3c(O)cc(O)cc3oc2c1O [gl-16]	57
O=c1c2cc(O)ccc2oc2cccc(O)c12 [gl-20]	3

System: HCC1395
Assay: Cell panel screen (CellTiter-Glo)
Format: cell-based, human
Settings: HCC1395 (Breast), 20 micromolar, 72 hrs
Method: as §1

Compound	Percent Inhibition [%]
COc1c(CC=C(C)C)cc2c(=O)c3c(O)cc(O)cc3oc2c1O [gl-16]	69
O=c1c2cc(O)ccc2oc2cccc(O)c12 [gl-20]	74

System: HCC1569
Assay: Cell panel screen (CellTiter-Glo)
Format: cell-based, human
Settings: HCC1569 (Breast), 20 micromolar, 72 hrs
Method: as §1

Compound	Percent Inhibition [%]
COc1c(CC=C(C)C)cc2c(=O)c3c(O)cc(O)cc3oc2c1O [gl-16]	50
O=c1c2cc(O)ccc2oc2cccc(O)c12 [gl-20]	57

System: HCC1599
Assay: Cell panel screen (CellTiter-Glo)
Format: cell-based, human
Settings: HCC1599 (Breast), 20 micromolar, 72 hrs
Method: as §1

Compound	Percent Inhibition [%]
COc1c(CC=C(C)C)cc2c(=O)c3c(O)cc(O)cc3oc2c1O [gl-16]	67
O=c1c2cc(O)ccc2oc2cccc(O)c12 [gl-20]	83

System: HCC1937
Assay: Cell panel screen (CellTiter-Glo)
Format: cell-based, human
Settings: HCC1937 (Breast), 20 micromolar, 72 hrs
Method: as §1

Compound	Percent Inhibition [%]
COc1c(CC=C(C)C)cc2c(=O)c3c(O)cc(O)cc3oc2c1O [gl-16]	50
O=c1c2cc(O)ccc2oc2cccc(O)c12 [gl-20]	62

System: HEC-1-A
Assay: Cell panel screen (CellTiter-Glo)
Format: cell-based, human
Settings: HEC-1-A (Uterus), 20 micromolar, 72 hrs
Method: as §1

Compound	Percent Inhibition [%]
COc1c(CC=C(C)C)cc2c(=O)c3c(O)cc(O)cc3oc2c1O [gl-16]	46
O=c1c2cc(O)ccc2oc2cccc(O)c12 [gl-20]	41

System: HGC-27
Assay: Cell panel screen (CellTiter-Glo)
Format: cell-based, human
Settings: HGC-27 (Stomach), 20 micromolar, 72 hrs
Method: as §1

Compound	Percent Inhibition [%]
COc1c(CC=C(C)C)cc2c(=O)c3c(O)cc(O)cc3oc2c1O [gl-16]	58
O=c1c2cc(O)ccc2oc2cccc(O)c12 [gl-20]	69

System: HPAF-II
Assay: Cell panel screen (CellTiter-Glo)
Format: cell-based, human
Settings: HPAF-II (Pancreas), 20 micromolar, 72 hrs
Method: as §1

Compound	Percent Inhibition [%]
COc1c(CC=C(C)C)cc2c(=O)c3c(O)cc(O)cc3oc2c1O [gl-16]	26
O=c1c2cc(O)ccc2oc2cccc(O)c12 [gl-20]	19

System: HT-1197
Assay: Cell panel screen (CellTiter-Glo)
Format: cell-based, human
Settings: HT-1197 (Urinary bladder), 20 micromolar, 72 hrs
Method: as §1

Compound	Percent Inhibition [%]
COc1c(CC=C(C)C)cc2c(=O)c3c(O)cc(O)cc3oc2c1O [gl-16]	37
O=c1c2cc(O)ccc2oc2cccc(O)c12 [gl-20]	77

System: J82
Assay: Cell panel screen (CellTiter-Glo)
Format: cell-based, human
Settings: J82 (Urinary bladder), 20 micromolar, 72 hrs
Method: as §1

Compound	Percent Inhibition [%]
COc1c(CC=C(C)C)cc2c(=O)c3c(O)cc(O)cc3oc2c1O [gl-16]	50
O=c1c2cc(O)ccc2oc2cccc(O)c12 [gl-20]	60

System: M059J
Assay: Cell panel screen (CellTiter-Glo)
Format: cell-based, human
Settings: M059J (Brain), 20 micromolar, 72 hrs
Method: as §1

Compound	Percent Inhibition [%]
COc1c(CC=C(C)C)cc2c(=O)c3c(O)cc(O)cc3oc2c1O [gl-16]	33
O=c1c2cc(O)ccc2oc2cccc(O)c12 [gl-20]	63

System: MSTO-211-H
Assay: Cell panel screen (CellTiter-Glo)
Format: cell-based, human
Settings: MSTO-211-H (Lung), 20 micromolar, 72 hrs
Method: as §1

Compound	Percent Inhibition [%]
COc1c(CC=C(C)C)cc2c(=O)c3c(O)cc(O)cc3oc2c1O [gl-16]	61
O=c1c2cc(O)ccc2oc2cccc(O)c12 [gl-20]	59

System: NCI-H1623
Assay: Cell panel screen (CellTiter-Glo)
Format: cell-based, human
Settings: NCI-H1623 (Lung), 20 micromolar, 72 hrs
Method: as §1

Compound	Percent Inhibition [%]
COc1c(CC=C(C)C)cc2c(=O)c3c(O)cc(O)cc3oc2c1O [gl-16]	18
O=c1c2cc(O)ccc2oc2cccc(O)c12 [gl-20]	-13

System: NCI-H1694
Assay: Cell panel screen (CellTiter-Glo)
Format: cell-based, human
Settings: NCI-H1694 (Lung), 20 micromolar, 72 hrs
Method: as §1

Compound	Percent Inhibition [%]
COc1c(CC=C(C)C)cc2c(=O)c3c(O)cc(O)cc3oc2c1O [gl-16]	55
O=c1c2cc(O)ccc2oc2cccc(O)c12 [gl-20]	86

System: NCI-H1770
Assay: Cell panel screen (CellTiter-Glo)
Format: cell-based, human
Settings: NCI-H1770 (Lung), 20 micromolar, 72 hrs
Method: as §1

Compound	Percent Inhibition [%]
COc1c(CC=C(C)C)cc2c(=O)c3c(O)cc(O)cc3oc2c1O [gl-16]	21
O=c1c2cc(O)ccc2oc2cccc(O)c12 [gl-20]	-4

System: NCI-H2347
Assay: Cell panel screen (CellTiter-Glo)
Format: cell-based, human
Settings: NCI-H2347 (Lung), 20 micromolar, 72 hrs
Method: as §1

Compound	Percent Inhibition [%]
COc1c(CC=C(C)C)cc2c(=O)c3c(O)cc(O)cc3oc2c1O [gl-16]	42
O=c1c2cc(O)ccc2oc2cccc(O)c12 [gl-20]	48

System: NCI-H2405
Assay: Cell panel screen (CellTiter-Glo)
Format: cell-based, human
Settings: NCI-H2405 (Lung), 20 micromolar, 72 hrs
Method: as §1

Compound	Percent Inhibition [%]
COc1c(CC=C(C)C)cc2c(=O)c3c(O)cc(O)cc3oc2c1O [gl-16]	12
O=c1c2cc(O)ccc2oc2cccc(O)c12 [gl-20]	-5

System: NCI-H28
Assay: Cell panel screen (CellTiter-Glo)
Format: cell-based, human
Settings: NCI-H28 (Lung), 20 micromolar, 72 hrs
Method: as §1

Compound	Percent Inhibition [%]
COc1c(CC=C(C)C)cc2c(=O)c3c(O)cc(O)cc3oc2c1O [gl-16]	41
O=c1c2cc(O)ccc2oc2cccc(O)c12 [gl-20]	24

System: NCI-H524
Assay: Cell panel screen (CellTiter-Glo)
Format: cell-based, human
Settings: NCI-H524 (Lung), 20 micromolar, 72 hrs
Method: as §1

Compound	Percent Inhibition [%]
COc1c(CC=C(C)C)cc2c(=O)c3c(O)cc(O)cc3oc2c1O [gl-16]	56
O=c1c2cc(O)ccc2oc2cccc(O)c12 [gl-20]	91

System: Panc 03.27
Assay: Cell panel screen (CellTiter-Glo)
Format: cell-based, human
Settings: Panc 03.27 (Pancreas), 20 micromolar, 72 hrs
Method: as §1

Compound	Percent Inhibition [%]
COc1c(CC=C(C)C)cc2c(=O)c3c(O)cc(O)cc3oc2c1O [gl-16]	47
O=c1c2cc(O)ccc2oc2cccc(O)c12 [gl-20]	52

System: RL95
Assay: Cell panel screen (CellTiter-Glo)
Format: cell-based, human
Settings: RL95 (Uterus), 20 micromolar, 72 hrs
Method: as §1

Compound	Percent Inhibition [%]
COc1c(CC=C(C)C)cc2c(=O)c3c(O)cc(O)cc3oc2c1O [gl-16]	45
O=c1c2cc(O)ccc2oc2cccc(O)c12 [gl-20]	67

System: SW13
Assay: Cell panel screen (CellTiter-Glo)
Format: cell-based, human
Settings: SW13 (Adrenal gland), 20 micromolar, 72 hrs
Method: as §1

Compound	Percent Inhibition [%]
COc1c(CC=C(C)C)cc2c(=O)c3c(O)cc(O)cc3oc2c1O [gl-16]	41
O=c1c2cc(O)ccc2oc2cccc(O)c12 [gl-20]	33

System: T47D
Assay: Cell panel screen (CellTiter-Glo)
Format: cell-based, human
Settings: T47D (Breast), 20 micromolar, 72 hrs
Method: as §1

Compound	Percent Inhibition [%]
COc1c(CC=C(C)C)cc2c(=O)c3c(O)cc(O)cc3oc2c1O [gl-16]	36
O=c1c2cc(O)ccc2oc2cccc(O)c12 [gl-20]	39

System: T98G
Assay: Cell panel screen (CellTiter-Glo)
Format: cell-based, human
Settings: T98G (Brain), 20 micromolar, 72 hrs
Method: as §1

Compound	Percent Inhibition [%]
COc1c(CC=C(C)C)cc2c(=O)c3c(O)cc(O)cc3oc2c1O [gl-16]	28
O=c1c2cc(O)ccc2oc2cccc(O)c12 [gl-20]	73

System: TCCSUP
Assay: Cell panel screen (CellTiter-Glo)
Format: cell-based, human
Settings: TCCSUP (Urinary bladder), 20 micromolar, 72 hrs
Method: as §1

Compound	Percent Inhibition [%]
COc1c(CC=C(C)C)cc2c(=O)c3c(O)cc(O)cc3oc2c1O [gl-16]	63
O=c1c2cc(O)ccc2oc2cccc(O)c12 [gl-20]	67

System: ZR-75-30
Assay: Cell panel screen (CellTiter-Glo)
Format: cell-based, human
Settings: ZR-75-30 (Breast), 20 micromolar, 72 hrs
Method: as §1

Compound	Percent Inhibition [%]
COc1c(CC=C(C)C)cc2c(=O)c3c(O)cc(O)cc3oc2c1O [gl-16]	93
O=c1c2cc(O)ccc2oc2cccc(O)c12 [gl-20]	87

Reference: article PMC4450297, “Screening Active Compounds from Garcinia Species Native to China Reveals Novel Compounds Targeting the STAT/JAK Signaling Pathway” (BioMed Research International, 2015)
